Data on three molecules can be found in paper PMC6627486, “Ipomoeassin F Binds Sec61α to Inhibit Protein Translocation” (Journal of the American Chemical Society, 2019).

Read-outs that look alike come from different tables or passages of the source. A value given as a limit tells only on which side of the number the result lay.

Test [1] has as its system WT HCT116. The test can be described thus: Alamar Blue viability, parental HCT116 (96 h). Type of test: cell-based, human. Conditions: read-out: cell viability IC50. The method, then: (§1) AlamarBlue Cytotoxicity Assay
(§2) MDA-MB-231, MCF-10A and HCT116. Viable cells were counted with a hemocytometer immediately before each experiment . Experiments were done in triplicate. First, 100 μL of MDA-MB-231 cells or MCF-10A cells at the density of 50,000 cells/mL was seeded in a 96-well plate (5,000 cells/well) and then incubated at 37 °C and 5% CO2 for 24 h. The compounds were dissolved in DMSO (dimethyl sulfoxide) to make drug stocks (10 mM). The stock solutions were diluted with the complete DMEM high glucose culture medium to make a series of gradient fresh working solutions right before each test. Subsequently, the cells were treated with 100 μL of the freshly made gradient working solution in a total volume of 200 μL/well for 72 h. After that, the media were discarded and 200 μL of the fresh complete medium containing 10% of AlamarBlue (resazurin) stock solution was added to each well. The plate was then incubated at 37 °C and 5% CO2 for another 3 h. Emission of each well at 620 nm was detected by a microplate reader (BioTek Synergy H1) at excitation 580 nm. For HCT116 WT and mutant lines, cells were seeded at 1000 cells/ well in complete McCoys medium. […] Cells were treated for 96 h, then viability measured with AlamarBlue, detected using the conditions described but with a BMG Fluostar Optima Microplate Reader. […]
(§3) was determined. […]
(In general: Alamar Blue is a resazurin reagent that responds to reducing activity.)

For test [2], the system named is HCT D60G. In words: Alamar Blue viability, HCT116 Sec61α D60G (96 h). Type of test: cell-based, human. The method, then:
as §1, §2, §3

Test [3] addresses T1, Sec61α (Homo sapiens, UniProt P61619).
T1 construct: enabling a biotin analogue of ipomoeassin F to pull down Sec61α from live cells; endogenous in cells; host or cells: MDA-MB-231
In words: Live cell-based biotin affinity pulldown in MDA-MB-231 cells. Type of test: binding. The settings on record: live MDA-MB-231 cells. The method, then:
Activity Based Protein Profiling
MDA-MB-231 cells were seeded in five groups of 6 cm petri dishes with 3 ml DMEM high glucose culture and incubated at 37 °C and 5% CO2 until 90% confluency. […]
After 1 h incubation at 37 °C […]
and 5% CO2, the cells were harvested by scraping and washed with cold PBS for 3 times. The cells were then lysed in 100 µl of lysis buffer 1 (50 mM Hepes, pH 9.0, 100 mM NaCl, 10% glycerol, 5 mM MgCl2, 1 mM CaCl2, 0.2% NP40, 1x protease inhibitor) using ultrasound sonication. The supernatant of each group was collected after centrifugation at 21,100 g and 4 °C for 10 min, and the protein concentration was quantified with a BCA kit. 10% SDS was then added into protein solution to make a final SDS concentration of 0.4%, and the solution was incubated at 95 °C for 5 min. […]
According to the experimental needs, MDA-MB-231 cells were seeded into 3-7 groups of 15-cm tissue-culture dishes and incubated at 37 °C and 5% CO2 until 90% confluency. […] The supernatant of each group was collected after centrifugation at 4 °C and 21,100 g for 10 min, and the protein concentration was quantified with the BCA kit. […]
rotation. […] The other part was analyzed by Western blotting, in which proteins on the nitrocellulose membrane were visualized by either fluorescently labeled streptavidin or an anti-Sec61α antibody. […]

T1 sequence (P60468 whole entry): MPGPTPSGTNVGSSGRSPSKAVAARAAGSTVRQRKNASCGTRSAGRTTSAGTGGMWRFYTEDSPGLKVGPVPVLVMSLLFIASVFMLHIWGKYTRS
T1 sequence (P60059 whole entry, further chain): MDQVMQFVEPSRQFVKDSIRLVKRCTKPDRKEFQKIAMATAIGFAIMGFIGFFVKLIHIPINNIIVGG
T1 sequence (P61619 whole entry): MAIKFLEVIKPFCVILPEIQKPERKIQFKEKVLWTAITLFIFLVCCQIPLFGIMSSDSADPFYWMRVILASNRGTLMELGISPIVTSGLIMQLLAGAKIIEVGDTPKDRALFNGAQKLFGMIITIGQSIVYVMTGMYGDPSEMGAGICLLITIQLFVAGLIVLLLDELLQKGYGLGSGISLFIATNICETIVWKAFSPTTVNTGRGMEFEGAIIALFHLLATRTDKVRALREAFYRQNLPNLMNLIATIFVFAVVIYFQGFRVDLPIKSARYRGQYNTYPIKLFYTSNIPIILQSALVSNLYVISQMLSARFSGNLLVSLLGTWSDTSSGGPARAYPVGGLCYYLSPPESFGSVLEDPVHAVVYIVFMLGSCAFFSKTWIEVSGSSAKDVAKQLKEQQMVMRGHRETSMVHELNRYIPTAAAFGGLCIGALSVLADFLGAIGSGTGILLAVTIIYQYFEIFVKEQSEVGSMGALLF

Usually IC50 stands for the concentration at which inhibition is half-maximal. As to `CC(=C\C=C\C(C)=C\[C@H](O)[C@@H](O)C[C@H](C)O)/C=C(C)/C=C/C(=O)O[C@H]1CCCC(=O)O[C@@H]([C@@H](C)C/C(C)=C/[C@@H](C)[C@H](O)C[C@@H](C)O)C/C=C(\C)C[C@@H]1C` [mycolactone, reference compound], the IC50 in test [1] (WT HCT116, 96 h) was 1.9 ± 0.6 nM; in test [2] (read-out: cell viability IC50), > 330 nM.

For `C/C=C(\C)C(=O)O[C@@H]1[C@@H](O)[C@@H]2O[C@H]3[C@H](O[C@@H](CCCCC)CCCCCCC(=O)CCC(=O)OC[C@@H](O2)[C@H]1OC(=O)/C=C/c1ccccc1)O[C@H](C)[C@H](OC(C)=O)[C@@H]3O` [ipomoeassin F], the IC50 in test [1] (Homo sapiens, HCT-116, WT HCT116, 96 h) was 40 ± 4 nM; in test [2] (Homo sapiens, HCT-116, read-out: cell viability IC50), 88.1 ± 10.3 nM. The “competition with probe 7 in pulldown of ∼40 kDa protein” value in test [3] (10 nM 7 + 50 nM ipomoeassin F, 20 nM 7 + 1 μM 8) was “outcompeted by a 5-fold excess”.

With `C/C=C(\C)C(=O)O[C@H]1[C@H](OC(=O)/C=C/c2ccc(OCc3cn(CCOCCOCCOCCNC(=O)CCCC[C@@H]4SC[C@@H]5NC(=O)N[C@@H]54)nn3)cc2)[C@@H](O)[C@@H]2O[C@H]3[C@H](O[C@@H](CCCCC)CCCCCCC(=O)CCC(=O)OC[C@H]1O2)O[C@H](C)[C@H](OC(C)=O)[C@@H]3O` [compound 5], the “recovery of ∼40 kDa protein (Sec61α) by biotin probe in streptavidin pulldown” value in test [3] (9 at 500 nM) was “no proteins were selectively enriched”.
